Data published in PMC7148433 (Biochemical Journal, 2020).

Molecular target: T1, lipocalin-type prostaglandin D synthase (L-PGDS) (Homo sapiens, UniProt P41222)
T1 sequence (P41222 23-190): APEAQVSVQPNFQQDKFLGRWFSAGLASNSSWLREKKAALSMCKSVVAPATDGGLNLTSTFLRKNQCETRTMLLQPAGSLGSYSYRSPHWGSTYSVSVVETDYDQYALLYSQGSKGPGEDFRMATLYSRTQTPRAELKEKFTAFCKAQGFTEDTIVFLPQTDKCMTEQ
Experiment: tryptophan fluorescence quenching
Type: binding

- Kd: 40 nM
Compound: C=CC1=C(C)C2=Cc3c(C=C)c(C)c4[n]3[Fe][n]3c(c(C)c(CCC(=O)O)c3=CC3=NC(=C4)C(C)=C3CCC(=O)O)=CC1=N2 [heme]
